Measurements: the Kinase Knowledgebase extract (Sharma et al. 2016)
Values joined by “and” are separate entries in the source; they are usually repeats but may differ in a detail not shown here. Identical values can stand only once.

These compounds were tested against MAPK14 (human) (UniProt Q16539) (assay: Enzyme Assay).
MAPK14 (human), sequence (Q16539 whole entry, looked up): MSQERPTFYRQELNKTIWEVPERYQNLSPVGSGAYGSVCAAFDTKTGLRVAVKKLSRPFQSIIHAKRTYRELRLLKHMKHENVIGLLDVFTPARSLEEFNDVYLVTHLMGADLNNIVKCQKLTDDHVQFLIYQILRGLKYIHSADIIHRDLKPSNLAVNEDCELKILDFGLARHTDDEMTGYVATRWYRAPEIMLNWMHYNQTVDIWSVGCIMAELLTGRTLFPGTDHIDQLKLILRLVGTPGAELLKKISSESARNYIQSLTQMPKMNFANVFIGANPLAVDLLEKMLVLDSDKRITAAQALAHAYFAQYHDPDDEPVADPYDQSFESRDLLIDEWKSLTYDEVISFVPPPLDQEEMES

| Ki | Kd [nM] | Compound |
| --- | --- | --- |
| 786 nM |  | CC(C)CC(CNC(=O)c1cccc(-n2nc(C(C)(C)C)cc2NC(=O)Nc2cccc3ccccc23)c1)C(N)=O (stereo not given) |
| 327 nM |  | CC(C)(C)c1cc(NC(=O)Nc2cccc3ccccc23)n(-c2cccc(C(=O)NCc3ccncn3)c2)n1 |
| 471 nM |  | CC(C)[C@H](CO)CNC(=O)c1cccc(-n2nc(C(C)(C)C)cc2NC(=O)Nc2cccc3ccccc23)c1 |
| 312 nM |  | CC(C)CN(CCCN)C(=O)c1cccc(-n2nc(C(C)(C)C)cc2NC(=O)Nc2cccc3ccccc23)c1 |
| 250 nM and 252 nM | 55 | CC(C)(C)c1cc(NC(=O)Nc2cccc3ccccc23)n(-c2cccc(C(=O)NCC#N)c2)n1 |
| 735 nM |  | CCN(CCN(C)C)C(=O)c1cccc(-n2nc(C(C)(C)C)cc2NC(=O)Nc2cccc3ccccc23)c1 |
| 112 nM |  | CC(C)(C)c1cc(NC(=O)Nc2cccc3ccccc23)n(-c2cccc(C(=O)N[C@@H]3CS(=O)(=O)C[C@H]3O)c2)n1 |
| 140 nM |  | CN1CCN(CCNC(=O)c2cccc(-n3nc(C(C)(C)C)cc3NC(=O)Nc3cccc4ccccc34)c2)CC1 |
| 291 nM |  | CC(C)(C)c1cc(NC(=O)Nc2cccc3ccccc23)n(-c2cccc(C(=O)NCCCN3CCOCC3)c2)n1 |
| 301 nM |  | CC(C)(C)c1cc(NC(=O)Nc2cccc3ccccc23)n(-c2cccc(C(=O)NCCCN3CCCC3)c2)n1 |
| 89 nM |  | CC(C)(C)c1cc(NC(=O)Nc2cccc3ccccc23)n(-c2cccc(C(=O)N(CCCN)C3CCCCC3)c2)n1 |
| 885 nM |  | CC(C)(C)c1cc(NC(=O)Nc2cccc3ccccc23)n(-c2cccc(C(=O)NC3CCN(CCN4CCOCC4)CC3)c2)n1 |
| 433 nM |  | CC(C)(C)c1cc(NC(=O)Nc2cccc3ccccc23)n(-c2cccc(C(=O)NCCNc3ccccc3)c2)n1 |
| 336 nM |  | COCCCN1CCC(NC(=O)c2cccc(-n3nc(C(C)(C)C)cc3NC(=O)Nc3cccc4ccccc34)c2)CC1 |
